According to patent US10240124B2, “Cell culture substrate comprising a laminin and a cadherin” (BioLamina AB, priority 2011, dated 2019):

Assays:
Human ES cells [1] = assay: Real-time quantitative RT-PCR of Oct4 and Nanog (Example 1); format: cell-based; settings: FIG. 11
Protocol: Total RNA was isolated and cDNA was synthesized as described in Rodin et al., Nature Biotechnol., vol. 28, pp. 611-615 (2010). Real-time quantitative RT-PCR Taqman assays were performed using the Applied Biosystems 7300 Real-Time PCR System. All reactions were done in quadruplicate with predeveloped gene expression assay mix (Applied Biosystems) containing primers and a probe for the mRNA of interest. Additional reactions for each experiment included predeveloped gene expression assay mix for GAPDH, used to normalize the RNA input. All data were analyzed with 7300 System SDS Software version 1.4.

Human ES cells [2] = assay: FACS analysis for OCT4 (Example 1); format: cell-based; settings: after several single cell suspension passages, O3 medium, FIG. 9 and 10
Protocol: OCT4 expression was analyzed as described in Ludwig, T. E. et al. Derivation of human embryonic stem cells in defined conditions. Nat. Biotechnol. 24, 185-187 (2006). Cells were run on FACSCalibur Flow Cytometer (Becton Dickinson). Data were analyzed with CellQuest software (Becton Dickinson).

hES cells [3] = assay: Cell survival assay, 24 hours (Example 2); format: cell-based, human
Protocol: Briefly, 96-well plates were coated by extracellular matrix proteins as described above and blocked by O3 medium containing bovine serum albumin. The ES cells were plated at cell density of 50,000 cells/cm^2 onto extracellular matrix-coated plates and left to adhere for 1 hour in a cell incubator. After that the plates were washed 3 times with the medium to remove the non-adherent cells, and then the adherent cells were fixed for 20 minutes by 5% glutaraldehyde, stained by 0.1% Crystal Violet. (Kebo Lab, Spanga, Sweden, http://www.kebolab.se). After one hour and 3 washes with water, Crystal Violet was extracted with 10% acetic acid and quantified by measuring optical density at 570 nm. All the experiments were performed in quadruplicate.
The survival assay was performed as described for the cell adhesion assay above, except that the cells were left in the cell incubator for 24 hours. For inhibition of survival assay, the cells were kept in a medium with function blocking antibodies at the concentrations recommended by the manufacturer or pathway inhibitors at concentrations indicated in the text for 30 minutes, and then plated on the coated dishes. All the experiments were performed in quadruplicate.
Pluripotent hES cells express α1, α5, β1, β2 and γ1 laminin chains. To compare the adhesion and clonal survival of hES cells plated from single cell suspension to different coating substrata, hES cells growing as monolayers on LN-511 or as clusters on a feeder layer were trypsinized into single cell suspension in O3 medium and plated on cell culture dishes coated with Matrigel, LN-111, LN-511, LN-521 or a mixture of LN-511 and LN-521, in the absence or presence of a ROCK inhibitor (Y-27632) and analyzed after 24 hours.

Integrin α6β1 = Integrin α6β1 (Homo sapiens, UniProt P05556+P23229); settings: cited from earlier work
Sequence of Integrin α6β1 (P23229 24-1130): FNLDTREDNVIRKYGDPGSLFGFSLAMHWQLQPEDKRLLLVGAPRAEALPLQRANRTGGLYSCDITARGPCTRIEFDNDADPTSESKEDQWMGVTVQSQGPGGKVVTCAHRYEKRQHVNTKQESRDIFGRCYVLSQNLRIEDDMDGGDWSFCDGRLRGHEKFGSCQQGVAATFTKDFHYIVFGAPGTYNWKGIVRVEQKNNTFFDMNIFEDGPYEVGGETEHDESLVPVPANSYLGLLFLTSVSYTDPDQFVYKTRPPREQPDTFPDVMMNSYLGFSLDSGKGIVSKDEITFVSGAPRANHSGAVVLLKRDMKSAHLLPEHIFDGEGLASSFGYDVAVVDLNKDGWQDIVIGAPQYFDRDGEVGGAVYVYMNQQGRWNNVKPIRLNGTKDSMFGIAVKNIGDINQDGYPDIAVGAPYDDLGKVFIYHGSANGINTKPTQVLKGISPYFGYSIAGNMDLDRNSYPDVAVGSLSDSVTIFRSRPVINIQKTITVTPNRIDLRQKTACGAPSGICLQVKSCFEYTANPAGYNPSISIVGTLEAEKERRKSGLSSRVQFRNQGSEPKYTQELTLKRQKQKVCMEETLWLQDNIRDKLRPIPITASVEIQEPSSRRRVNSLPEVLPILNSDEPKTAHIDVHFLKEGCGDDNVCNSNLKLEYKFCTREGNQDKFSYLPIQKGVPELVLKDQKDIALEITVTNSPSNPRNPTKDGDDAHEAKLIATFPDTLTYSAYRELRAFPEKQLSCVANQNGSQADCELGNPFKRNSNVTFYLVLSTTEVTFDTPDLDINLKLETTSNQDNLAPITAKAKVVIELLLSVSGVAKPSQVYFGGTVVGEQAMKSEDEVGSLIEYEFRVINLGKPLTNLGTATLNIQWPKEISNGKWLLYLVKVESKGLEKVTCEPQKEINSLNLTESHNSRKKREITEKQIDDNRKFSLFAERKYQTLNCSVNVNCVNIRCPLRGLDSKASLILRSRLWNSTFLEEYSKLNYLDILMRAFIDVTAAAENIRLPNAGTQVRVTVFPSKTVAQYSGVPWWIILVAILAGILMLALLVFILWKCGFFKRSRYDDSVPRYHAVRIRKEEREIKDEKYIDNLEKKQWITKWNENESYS
Sequence of Integrin α6β1 (P05556 21-798): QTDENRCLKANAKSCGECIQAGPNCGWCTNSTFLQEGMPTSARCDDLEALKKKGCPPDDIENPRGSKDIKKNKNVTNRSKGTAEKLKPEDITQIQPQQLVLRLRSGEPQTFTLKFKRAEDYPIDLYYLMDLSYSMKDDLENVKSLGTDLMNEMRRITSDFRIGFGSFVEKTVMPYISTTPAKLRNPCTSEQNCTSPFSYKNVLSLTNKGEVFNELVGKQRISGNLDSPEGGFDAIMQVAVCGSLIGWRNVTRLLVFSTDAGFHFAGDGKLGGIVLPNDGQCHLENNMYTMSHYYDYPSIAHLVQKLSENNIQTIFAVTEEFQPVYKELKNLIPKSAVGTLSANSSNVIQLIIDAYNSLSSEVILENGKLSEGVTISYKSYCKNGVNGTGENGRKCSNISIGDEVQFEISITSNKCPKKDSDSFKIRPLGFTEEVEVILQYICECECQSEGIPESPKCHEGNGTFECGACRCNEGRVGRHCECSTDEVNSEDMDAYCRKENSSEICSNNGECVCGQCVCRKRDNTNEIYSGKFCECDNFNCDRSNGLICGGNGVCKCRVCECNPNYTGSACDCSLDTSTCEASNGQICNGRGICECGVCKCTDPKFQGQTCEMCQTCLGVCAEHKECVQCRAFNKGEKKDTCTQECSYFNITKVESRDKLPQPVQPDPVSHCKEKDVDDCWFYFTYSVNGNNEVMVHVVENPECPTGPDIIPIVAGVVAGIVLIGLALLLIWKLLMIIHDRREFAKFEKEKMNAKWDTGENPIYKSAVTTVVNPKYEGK

hES cells [4] = assay: In vivo imaging and migration assay; format: cell-based, human
Protocol: 24-well plates were coated by extracellular matrix proteins and blocked by O3 medium containing bovine serum albumin. The ES cells were plated at cell density of 30,000-40,000 cells/cm^2 onto extracellular matrix-coated plates and left to adhere for half an hour in a cell incubator. After that, the plate was transferred into high content imaging system Operetta (PerkinElmer) equipped with environmental control unit, which allowed to keep 37° C., 5% CO2. For two movies that were made, the brightfield images were taken once in 15 minutes during 24 hours after plating using Harmony software (PerkinElmer), exported, and analyzed using ImageJ software (NIH, the US). For migration assay the images were taken every seven minutes during 18 hours after plating. Images acquired between the fifth and seventh hours after plating were analyzed using MTrackJ plug-in (University Medical Center, Rotterdam, The Netherlands). 100 attached cells on each coating were traced and mean distances from the current to the previous point of the track were calculated. Error bars show standard error of the mean s.e.m. (n=100).

SCID mouse = assay: Teratoma formation; format: in vivo; settings: HS181 13 passages, H1 12 passages in O3; H1 7 passages in TeSR2
Protocol: Teratoma formation experiments were performed by implantation of approximately 10^6 cells beneath the testicular capsule of a young (7-week-old) severe combined immunodeficiency (SCID) mouse. Three animals per each cell line were used. Teratoma growth was observed by weekly palpation, and the mice were sacrificed eight weeks after the implantation. The teratomas were fixed, and sections were stained with hematoxylin and eosin (HE) or with hematoxylin, eosin and PAS (HE-PAS). […] All animal experiments were performed at the infection-free animal facility of the Karolinska University Hospital in accordance with ethical committee approval.

Human ES cells [5] = assay: Expansion of hES cells on r-laminin-521 with single cell dissociation passaging (Example 1); format: cell-based
From the text: In further aspects, the present disclosure provides a method to expand human embryonic stem cells in pluripotent state. It has been shown that human embryonic stem cells plated in single cell suspension on laminin-521 survived and proliferated at a higher rate than that of classical methods known in the art. After 3 passages (1 month) the cells passaged in a single cell suspension underwent the same number of cell divisions as that of cell cultures passaged in pieces on Matrigel after 20 passages (3 months). Therefore, the new method was advantageous in terms of time and labor, which may provide significant economical profits.
Human ES cells were cultured on r-laminin-521-coated laboratory dishes in chemically defined O3 medium (described in Rodin et al., Nature Biotechnol., vol. 28, pp. 611-615 (2010)) at 37° C. in 5% CO2. Cells were routinely passed once every 10-12 days by exposure to Trypsin-EDTA solution (GIBCO Invitrogen) for 5 minutes at 37° C. They were then gently pipetted to break into single-cell suspension and defined trypsin inhibitor (GIBCO Invitrogen) was added. The cell suspension was centrifuged […], the supernatant discarded, the cell pellet resuspended in prewarmed O3 medium, and cells were then passed through a 40 μm sieve. After that cells were plated on new r-laminin-521-coated dishes at a concentration 30 Kcells/cm^2 (1:25-1:30 split ratio). Cells were fed once a day with fresh medium prewarmed in an incubator for 1 hour, except for the first day after a passage, when only a few drops of fresh medium were added. Control cells of the same line were cultured on Matrigel (BD Biosciences) in O3 medium as described in Rodin et al., Nature Biotechnol., vol. 28, pp. 611-615 (2010). Control cells were passaged in pieces.

Substance: LN-521: protein formed by joining α5, β2 and γ1 laminin chains; human recombinant, produced in HEK293 cells
- number of mRNA transcripts of Oct4 and Nanog compared with Matrigel (Human ES cells [1]): higher numbers of transcripts
- percentage of Oct4 positive (pluripotent) cells compared with Matrigel (Human ES cells [2]): much higher percentage
- survival of Y-27632 treated human ES cells compared with Matrigel (hES cells [3]; 40,000 cells per 1 cm^2, 10 μM Y-27632): survived better
- survival after 24 hours relative to LN-511 (hES cells [3]; O3 medium): three times higher
- survival after 24 hours relative to Matrigel (hES cells [3]; O3 medium): approximately 20 times
- survival of hES cells 24 hours after plating from single cell suspension (hES cells [3]; O3 medium, absence of ROCK inhibitor): did so as single cells
- survival relative to Matrigel without exogenous bFGF (hES cells [3]; exogenous bFGF removed from the O3 medium): 20 times
- survival 24 hours after plating in medium lacking all growth factors of the TeSR1 formulation (hES cells [3]; no bFGF, LiCl, GABA, pipecolic acid, TGFβ): survived
- binding affinity of integrin α6β1 compared with LN-111 (Integrin α6β1): higher than that for LN-111
- cell migration by imaging compared with Matrigel (hES cells [4]; 24 hours imaging): much faster
- motility of hES cells compared with other coatings (hES cells [4]; between the fifth and seventh hours after plating, FIG. 14): higher than that of the cells on other coatings
- histology of teratomas formed in SCID mice (SCID mouse): development of tissues containing all three germ lineages
- passages in single cell suspension giving the same number of cell divisions as cultures passaged in pieces on Matrigel after 20 passages (3 months) (Human ES cells [5]; 1 month): 3 passages
- passages to the same number of cell doublings as stem cells after 20 passages (100 days) by conventional methods (Human ES cells [5]; 1 month, FIG. 8): 3 passages
- increase in the number of cells versus time compared with Matrigel (Human ES cells [5]; FIG. 8): much faster rate
- proliferation rate compared with classical methods (Human ES cells [5]; plated in single cell suspension): higher rate
- passages of robust proliferation at a stable and high rate (Human ES cells [5]; single cell passaging every 10-12 days, 1:25 to 1:30, 3 months): at least 9 passages
